Ki data for 18 molecules are collected here from patent US20060063759A1, “Tricyclic steroid hormone nuclear receptor modulators” (priority 2002, published 2006).

One test concerns the target T1, human MR (Homo sapiens, UniProt P08235).
T1 construct: The full length human MR gene is cloned from a human kidney or human brain cDNA library; His tag from the pAcHLT vector (own knowledge); made in house; host or cells: Sf9 insect cells (baculovirus, pAcHLT transfer vector)
T1 sequence (P08235 1-984): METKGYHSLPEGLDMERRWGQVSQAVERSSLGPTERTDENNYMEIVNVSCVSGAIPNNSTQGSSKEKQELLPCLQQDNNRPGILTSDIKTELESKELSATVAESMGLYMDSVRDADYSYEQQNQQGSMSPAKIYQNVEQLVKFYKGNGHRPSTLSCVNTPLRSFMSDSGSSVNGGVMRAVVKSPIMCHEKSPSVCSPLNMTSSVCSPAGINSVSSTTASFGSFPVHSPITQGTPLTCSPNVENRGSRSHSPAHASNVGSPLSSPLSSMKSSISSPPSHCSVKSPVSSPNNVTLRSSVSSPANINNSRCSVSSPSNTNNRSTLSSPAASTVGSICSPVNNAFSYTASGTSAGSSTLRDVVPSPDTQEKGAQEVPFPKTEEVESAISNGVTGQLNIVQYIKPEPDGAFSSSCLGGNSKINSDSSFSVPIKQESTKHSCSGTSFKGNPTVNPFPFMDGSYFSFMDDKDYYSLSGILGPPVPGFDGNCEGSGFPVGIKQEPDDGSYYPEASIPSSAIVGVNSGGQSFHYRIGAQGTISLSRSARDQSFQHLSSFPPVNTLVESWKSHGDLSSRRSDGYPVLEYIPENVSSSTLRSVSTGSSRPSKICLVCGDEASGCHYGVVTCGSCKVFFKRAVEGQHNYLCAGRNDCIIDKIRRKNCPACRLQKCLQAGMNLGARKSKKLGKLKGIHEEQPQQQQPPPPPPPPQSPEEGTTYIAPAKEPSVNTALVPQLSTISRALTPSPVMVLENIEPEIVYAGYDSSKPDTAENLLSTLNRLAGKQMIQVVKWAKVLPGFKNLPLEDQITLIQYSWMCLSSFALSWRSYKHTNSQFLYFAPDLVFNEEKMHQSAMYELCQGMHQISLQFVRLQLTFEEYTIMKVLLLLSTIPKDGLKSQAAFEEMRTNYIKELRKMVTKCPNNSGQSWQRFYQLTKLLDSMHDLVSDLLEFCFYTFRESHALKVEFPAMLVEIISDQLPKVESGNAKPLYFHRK
The test is described as follows: Mineralocorticoid Receptor Binding Assay ([3H]-aldosterone). Conditions: [3H]-aldosterone binding, human MR expressed in Sf9 cells; read-out: MR Ki. As for the experimental part:
(§1) All ligands, radioligands, solvents, and reagents employed in the binding assays are readily available from commercial sources, or can be readily synthesized by the ordinarily skilled artisan.
The full length human MR gene is cloned from a human kidney or human brain cDNA library. […] The PCR reaction is performed in a final volume of 50 μl containing about 1 μl of a 50× stock solution of polymerase; about 1 μl of a 50× stock solution of dNTP; about 5 μl of an appropriate PCR buffer; about 1 μl of each primer; about […] of a H. kidney or H. brain cDNA library; and about 36 μl of water. The reaction is allowed to denature for about 30 seconds at 95 degrees Celsius, anneal for about 30 seconds at 55 degrees Celsius, and extend for about 5 minutes at 72 degrees Celsius, the sequence being repeated for a total of about 35 cycles. […] To extract the cDNA product from the agarose gel, the QIAEX II Gel Extraction protocol (QIAGEN, Inc.) is employed according to the manufacturer's instructions. Following extraction, the MR cDNA is cloned into an appropriate cloning vector (Zero Blunt TOPO PCR Cloning Kit Invitrogen, Inc.) and a pAcHLT-baculovinis transfer vector (B.D./Pharminogen), then expressed in SF9 insect cells, essentially according to manufacturer's instructions. Sf9 cells are grown at a scale where gram quantity cell pellets are obtained for subsequent use in the MR binding assay. Harvested cell pellets are lysed by repeated freeze-thaw cycles (about 4) in a suitable lysis buffer then centrifuged at about 1×10^3 G (with the supernatant being saved for future assays).
MR binding assays are performed in a final total volume of about 250 μl containing about 20-25 μg of protein and 0.5 nM of [^3H]-aldosterone plus varying concentrations of test compound or vehicle. The assay binding buffer consists of 30 mM sodium molybdate, 30 mM of TRIS-HCl, 5 mM sodium phosphate, 5 mM sodium pyrophosphate, and about 10% glycerol, pH=7.5.
Incubations are carried out at 4 degrees Celsius with shaking for about 16 hours. 200 μl aliquots of each incubation are filtered onto Millipore HA 0.45 micron 96-well filter plates, pre-moistened with cold 30 mM TRIS-HCl. The filter plates are suctioned dry with vacuum and immediately washed 3× with cold 30 mM TRIS-HCl. The plates are then punched out and the amount of receptor-ligand complex is determined by liquid scintillation counting using 4 ml of Ready Protein Plus™ liquid scintillation cocktail.
IC50 values (defined as the concentration of test compound required to decrease [^3H]-aldosterone binding by 50%/o) are then determined.

A further test concerns the target T2, glucocorticoid receptor (Homo sapiens, UniProt P04150).
T2 construct: containing 50-200 ug of A549 cell extract and 1.86 nM [^3H]-dexamethasone; host or cells: A549 human lung epithelial cells (sonicated cell extract)
T2 sequence (P04150 1-777): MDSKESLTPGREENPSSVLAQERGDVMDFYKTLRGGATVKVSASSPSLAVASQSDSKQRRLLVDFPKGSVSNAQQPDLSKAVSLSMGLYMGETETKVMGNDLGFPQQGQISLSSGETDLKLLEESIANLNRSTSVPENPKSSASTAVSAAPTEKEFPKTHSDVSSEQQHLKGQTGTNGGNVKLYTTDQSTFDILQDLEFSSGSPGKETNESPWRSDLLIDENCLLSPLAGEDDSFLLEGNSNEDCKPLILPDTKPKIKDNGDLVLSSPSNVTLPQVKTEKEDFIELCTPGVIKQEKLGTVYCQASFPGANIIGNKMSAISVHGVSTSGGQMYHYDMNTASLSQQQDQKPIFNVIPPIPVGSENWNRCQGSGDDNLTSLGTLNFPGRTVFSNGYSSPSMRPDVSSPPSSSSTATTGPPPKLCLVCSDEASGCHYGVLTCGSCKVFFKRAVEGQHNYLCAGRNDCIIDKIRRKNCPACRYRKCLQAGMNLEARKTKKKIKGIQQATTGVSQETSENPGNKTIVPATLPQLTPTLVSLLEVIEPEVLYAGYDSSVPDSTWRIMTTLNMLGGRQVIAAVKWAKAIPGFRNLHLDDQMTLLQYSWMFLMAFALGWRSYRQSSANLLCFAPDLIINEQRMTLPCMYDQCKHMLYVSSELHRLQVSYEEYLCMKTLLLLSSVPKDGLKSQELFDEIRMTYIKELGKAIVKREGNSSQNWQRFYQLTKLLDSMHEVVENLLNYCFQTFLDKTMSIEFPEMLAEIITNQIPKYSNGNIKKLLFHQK
The test is described as follows: Glucocorticoid Receptor Binding Assay ([3H]-dexamethasone, A549 cell extract). As to conditions: [3H]-dexamethasone binding, read-out: GR Ki. As for the experimental part: as §1
A549 human lung epithelial cells (ATCC) are grown at a scale where gram quantity cell pellets are obtained. Harvested cell pellets are washed twice in cold phosphate buffered saline, centrifuged, and resuspended in cold assay binding buffer. The assay binding buffer consists of 10% glycerol, 50 mM Tris-HCl (pH7.2), 75 mM sodium chloride, 1.5 mM magnesium chloride, 1.5 mM EDTA, and 10 mM sodium molybdate. Cell suspensions were lysed via sonication, centrifuged, and the “extract” supernatant is snap frozen and stored at −80 C until needed.
GR binding assays are performed in a final volume of 140 ul containing 50-200 ug of A549 cell extract and 1.86 nM [^3H]-dexamethasone (Amersham) plus varying concentrations of test compound or vehicle. Briefly, assays are prepared at RT in 96-well Fisher 3356 plates, each well containing 100 ul of A549 cell extract, 20 ul of [^3H]-dexamethasone, and 20 ul of test compound/vehicle. Incubations are carried out at 4 degrees Celsius for 16 hours. After incubation, 70 ul of 3× dextran-coated charcoal solution is added to each reaction, mixed, and incubated for 8 minutes at RT. 3×-dextran-coated charcoal solution consists of 250 ml assay binding buffer, 3.75 g Norit A charcoal (Sigma), and 1.25 g dextran T-70 (Amersham). Charcoal/unbound radioligand complexes are removed by centrifugation of the plate and 140 ul of supernatant from each well is transferred to another 96 well Optiplate (Packard Instruments). 200 ul of Microscint-20 scinillant (Packard Instruments) is added to each well and amount of receptor bound radioligand is determined using Packard Instruments TopCount instrument.

For `Cc1nc(S(=O)(=O)Nc2cccc(C=C3c4ccccc4CCc4ccccc43)c2)cn1C` [Example 96, 1,2-Dimethyl-1H-imidazole-4sulfonic acid [3-(10,11-dihydro-dibenzo[a,d]cyclohepten-5-ylidenemethyl)-phenyl]-amide], the Ki (commonly a measure of affinity in units of concentration, obtained from inhibition or displacement) on human MR was less than 500 nM; on glucocorticoid receptor, less than 10000 nM.

Regarding `N#Cc1cccc2c1CCc1ccccc1/C2=C/c1cccc(O)c1` [Example 363], the Ki at human MR and on glucocorticoid receptor was less than 500 nM throughout.

Consider `COc1cccc(/C=C2\c3ccccc3CCc3c(O)cccc32)c1` [Example 368], for which the Ki at human MR is less than 500 nM; at glucocorticoid receptor it was less than 10000 nM.

In the case of `COc1ccc(NS(C)(=O)=O)cc1C=C1c2ccccc2CCc2ccccc21` [Example 42, N-[3-(10,11-Dihydro-dibenzo[a,d]cyclohepten-5-ylidenemethyl)-4-methoxy-phenyl]-methanesulfonamide], the results for the Ki on human MR and at glucocorticoid receptor were less than 500 nM and less than 10000 nM, respectively.

Regarding `CS(=O)(=O)Nc1cccc(/C=C2\c3ccccc3COc3c(Cl)cccc32)c1` [Example 663], the Ki on human MR and at glucocorticoid receptor was less than 500 nM in each case.

Turning to `CS(=O)(=O)Nc1cccc(/C=C2/c3ccccc3CCc3ncsc32)c1` [Example 555], the Ki at human MR and at glucocorticoid receptor was less than 500 nM each time.

Take `COC(=O)c1ccc2c(c1)/C(=C\c1cccc(NS(C)(=O)=O)c1)c1ccccc1CO2` [Example 659]: the Ki was less than 1000 nM on human MR and less than 10000 nM at glucocorticoid receptor.

`O=c1[nH]c2cc(/C=C3/c4ccccc4COc4cc(F)ccc43)ccc2n1C1CC1` [Example 709]: the Ki at human MR and at glucocorticoid receptor was less than 500 nM each time.

For the molecule `COc1ccc2c(c1)COc1cc(F)ccc1/C2=C/c1cccc(NS(C)(=O)=O)c1` [Example 736], the Ki on human MR and on glucocorticoid receptor was less than 500 nM each time.

With `Nc1ccc(/C=C2\c3ccc(F)cc3CCc3ncccc32)cc1` [Example 534], the Ki on human MR was less than 500 nM; at glucocorticoid receptor it was less than 10000 nM.

As to `CCS(=O)(=O)Nc1ccc(C=C2c3ccccc3CCc3ccccc32)cc1` [Example 106, Ethanesulfonic acid [4-(10,11-dihydro-dibenzo[a,d]cyclohepten-5-ylidenemethyl)-phenyl]amide], the Ki at human MR and on glucocorticoid receptor was less than 500 nM each time.

Take `CS(=O)(=O)Nc1cccc(/C=C2\c3ccccc3CCc3ncccc32)c1` [Example 253, (E)-N-[3-(10,11-Dihydro-benzo[4,5]cyclohepta[1,2-b]pyridin-5-ylidenemethyl)-phenyl]-methanesulfonamide]: the Ki on human MR and on glucocorticoid receptor was less than 500 nM in each case.

Turning to `CN(c1cccc(/C=C2/c3ccccc3COc3c(Cl)cccc32)c1)S(C)(=O)=O` [Example 666], the Ki at human MR and on glucocorticoid receptor was less than 500 nM each time.

As for `Nc1cccc(/C=C2\c3ccc(Cl)cc3CCc3sccc32)c1` [Example 478, 3-(7-Chloro-9,10-dihydro-1-thia-benzo[f]azulen-4-ylidenemethyl)-phenylamine], the Ki is less than 500 nM on human MR and less than 10000 nM at glucocorticoid receptor.

For the molecule `COc1ccc2c(c1)COc1ccccc1C2C(C)c1cccc(NS(C)(=O)=O)c1` (racemic) [Example 752, N-{3-[1-(8-Methoxy-6,11-dihydro-dibenzo[b,e]oxepin-11-yl)-ethyl]-phenyl}-methanesulfonamide], the Ki at human MR and at glucocorticoid receptor was less than 500 nM throughout.

Turning to `Cn1cnc(S(=O)(=O)Nc2ccc(C=C3c4ccccc4CCc4ccccc43)cc2)c1` [Example 143, 1-Methyl-1H-imidazole-4-sulfonic acid [4-(10,11-dihydro-dibenzo[a,d]cyclohepten-5-ylidenemethyl)-phenyl]-amide], the Ki was less than 500 nM on human MR and less than 10000 nM on glucocorticoid receptor.

For `CS(=O)(=O)Nc1cccc(/C=C2/c3ccccc3CCc3cc(C(=O)O)ccc32)c1` [Example 418], the Ki is less than 500 nM at human MR and less than 1000 nM on glucocorticoid receptor.

For `CS(=O)(=O)Nc1cccc(C=C2c3ccccc3CCc3ccc(F)cc32)c1` (mixture of isomers) [Example 214, N-[3-(3-Fluoro-10,11-dihydro-dibenzo[a,d]cyclohepten-5-ylidenemethyl)-phenyl]-methanesulfonamide], the Ki at human MR and on glucocorticoid receptor was less than 500 nM in each case.
